# Assay results reported in PubChem BioAssay (NCI).
# Where “and” joins values, the source holds several entries; their conditions need not be identical. Equal values may be shown once.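 Values below derive from 48-hour exposures of cells grown in 96-well plates, with endpoints linearly interpolated between the two concentrations bracketing the appropriate inhibition level. At the GI50, growth is halved. TGI: total growth inhibition.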
# Legend:
# Assay in all cases: DTP human tumour cell line panel, 48 h
# CCRF-CEM leukemia = system: CCRF-CEM leukemia
# HOP-62 NSCLC = system: HOP-62 NSCLC
# K-562 leukemia = system: K-562 leukemia
# KM12 colon = system: KM12 colon
# MOLT-4 leukemia = system: MOLT-4 leukemia
# NCI-H522 lung = system: NCI-H522 lung
# SK-MEL-5 melanoma = system: SK-MEL-5 melanoma
# SK-OV-3 ovarian = system: SK-OV-3 ovarian
# SNB-75 CNS = system: SNB-75 CNS
# T-47D breast = system: T-47D breast
SMILES,GI50 (CCRF-CEM leukemia),TGI (CCRF-CEM leukemia),GI50 (HOP-62 NSCLC),TGI (HOP-62 NSCLC),GI50 (K-562 leukemia) [µM],TGI (K-562 leukemia) [µM],GI50 (KM12 colon),TGI (KM12 colon),GI50 (MOLT-4 leukemia),TGI (MOLT-4 leukemia),GI50 (NCI-H522 lung),TGI (NCI-H522 lung),GI50 (SK-MEL-5 melanoma),TGI (SK-MEL-5 melanoma),GI50 (SK-OV-3 ovarian),TGI (SK-OV-3 ovarian),GI50 (SNB-75 CNS),TGI (SNB-75 CNS),GI50 (T-47D breast),TGI (T-47D breast) [µM]
CCN(CC)CCCNCc1cc(-c2ccccc2)nc2ccccc12,2.22 µM,> 100 µM,8.27 µM,> 100 µM,5.63,22.1,15 µM,> 100 µM,0.751 µM,> 100 µM,15.9 µM,52.3 µM,5.49 µM,18.7 µM,52.1 µM,> 100 µM,12.3 µM,35.8 µM,10.2 µM,59.6
CC(=O)c1c(C)[nH]c(-c2nc3ccc(N4CCN(C)CC4)cc3[nH]2)c1-c1ccc(N(C)C)cc1,1.16 µM,> 37.7 µM,0.56 µM,28.4 µM,0.461,8.79,1.34 µM,20.2 µM,1.5 µM,45.2 µM,0.606 µM,16.6 µM,1.19 µM,4.59 µM,0.465 µM,3.65 µM,0.0456 µM,1.74 µM,0.434 µM,16.6
Cc1nc2ccccc2c(/C=C/c2ccc(Cl)cc2)c1C(=O)/C=C/c1ccc(C(F)(F)F)cc1,0.291 µM,> 100 µM,0.877 µM,2.31 µM,0.31,> 100,1.28 µM,3.46 µM,0.332 µM,> 100 µM,0.198 µM,0.838 µM,1.34 µM,2.63 µM,1.67 µM,3.1 µM,1.28 µM,2.57 µM,0.299 µM,1.46
CC(C)=CCC/C(C)=C/CC/C(C)=C/CSc1ccccc1C(=O)O,32.3 µM,> 100 µM and 74.2 µM,,35.2 µM and 30.6 µM,26.2,> 100,,35.8 µM and 33.5 µM,,48.9 µM and 57.7 µM,21.6 µM,52 µM,19.6 µM,41.5 µM and 29.5 µM,37.6 µM,> 100 µM and 62.8 µM,> 66.4 µM,> 100 µM and 42.1 µM,33.6 µM,> 91.3
COCc1cc(C(=O)Nc2cc([C@H]3CC[C@@H](OC(=O)NC(C)C)C3)[nH]n2)n(C)n1,4.78 µM,70.2 µM,8.6 µM,88.4 µM,12.1,> 100,1.27 µM,23.1 µM,5.34 µM,68.1 µM,16.2 µM,47.2 µM,15.6 µM,39.3 µM,28.6 µM,96.2 µM,3.86 µM,22.4 µM,9.71 µM,89
Cc1cc(N2CCOCC2)nc(N[C@@H]2CCC[C@H](Nc3ccnc4cc(Cl)ccc34)C2)n1,3.31 µM,9.25 µM,1.73 µM,4.36 µM,1.21,3.69,3.06 µM,10.8 µM,2.28 µM,7.19 µM,2.97 µM,6.23 µM,1.86 µM,3.27 µM,3.44 µM,11.9 µM,1.6 µM,4.01 µM,1.68 µM,3.71
C[As](C)SCC(COC(=O)C(Cl)c1ccccc1)OC(=O)C(Cl)c1ccccc1 (stereo not drawn),0.339 µM,2.14 µM,6.66 µM,21.6 µM,0.147,,2.24 µM,13.5 µM,0.49 µM,,0.361 µM,> 38.8 µM,0.305 µM,1.12 µM,2.63 µM,> 54.9 µM,10.6 µM,42.6 µM,17.1 µM,> 45.8
C=CC(=O)Nc1cc(C)ccc1Nc1nc(Nc2cc(OC)ncc2C)ncc1C(F)(F)F,3.73 µM,> 100 µM,0.741 µM,> 66.7 µM,2.56,> 100,1.13 µM,> 58.1 µM,3.55 µM,> 100 µM,1.14 µM,> 31.6 µM,1.77 µM,5.42 µM,4.09 µM,> 100 µM,0.285 µM,1.45 µM,1.2 µM,> 100
Oc1ccc(-c2nc3ccccc3s2)cc1CN(Cc1ccccn1)Cc1ccccn1,1.09 µM,> 100 µM,0.34 µM,32.1 µM,0.674,35.5,0.909 µM,15.6 µM,1.42 µM,13.9 µM,2.83 µM,14.2 µM,0.556 µM,2.27 µM,1.35 µM,43.5 µM,1.22 µM,15.3 µM,3.79 µM,89.9
Cc1nc(-c2cn3c(n2)-c2ccc(-c4cnn(C(C)(C)C(N)=O)c4)cc2OCC3)n(C(C)C)n1,0.338 µM and 0.765 µM,27.8 µM and > 10 µM,0.726 µM and 4.51 µM,60.4 µM and > 10 µM,8.86,> 75.7,3.48 µM and 3 µM,17.2 µM and > 10 µM,0.136 µM and 0.282 µM,22.8 µM and > 10 µM,5.73 µM and 6.01 µM,26.7 µM and > 10 µM,4.1 µM and 2.79 µM,17.2 µM and > 10 µM,< 0.0126 µM and 0.0162 µM,0.137 µM,0.0204 µM and 0.0142 µM,2.63 µM and > 2.63 µM,< 0.0384 µM and 0.00372 µM,
C#CCSc1cc(Cl)c(C)cc1S(=O)(=O)Nc1nc2ccccc2o1,26.2 µM,> 100 µM,29 µM,65.6 µM,69.8,> 100,27.4 µM,75.4 µM,41.8 µM,> 100 µM,25.7 µM,61.5 µM,20.5 µM,40.2 µM,,,85.8 µM,> 100 µM,44.3 µM,> 100
C#Cc1c(/C=C/C(=O)OCC)ccc2ccccc12,14.6 µM,30.9 µM,28.5 µM,95.5 µM,6.98,41.7,5.84 µM,23.9 µM,10.7 µM,26.1 µM,13.4 µM,31.1 µM,15.2 µM,31.9 µM,58.8 µM,> 100 µM,10.1 µM,40.4 µM,42.8 µM,> 100
O=c1cc(-c2cccc3c2Sc2ccccc2S3)oc(N2CCOCC2)c1,21.1 µM,> 55.8 µM,10.9 µM,23 µM,5.98,30.9,8.04 µM,21.4 µM,7.34 µM,25.5 µM,8.01 µM,22.6 µM,8.53 µM,22 µM,13.4 µM,27.3 µM,4.97 µM,19.9 µM,3.69 µM,18.2
CS(=O)(=O)CCc1cccc(C(=O)c2cnn(-c3ccc(F)cc3)c2N)c1,> 25 µM,> 25 µM,> 25 µM,> 25 µM,> 25,> 25,> 25 µM,> 25 µM,> 18 µM,> 25 µM,> 25 µM,> 25 µM,> 25 µM,> 25 µM,> 25 µM,> 25 µM,> 25 µM,> 25 µM,> 25 µM,> 25
CC(=O)OC(C)(C)/C(C)=C/C(=O)O[C@H]1C(=O)O[C@@H]2C[C@H]3[C@H](C)C(=O)C(O[C@@H]4O[C@H](CO)[C@@H](O)[C@H](O)[C@H]4O)=C[C@]3(C)[C@H]3[C@@H](O)[C@H](O)[C@@]4(C(=O)O)OC[C@]32[C@@H]14,43.8 µM,> 100 µM,69.1 µM,> 100 µM,39.5,> 100,> 100 µM,> 100 µM,33.9 µM,> 100 µM,18.7 µM,49.5 µM,,,> 100 µM,> 100 µM,> 100 µM,> 100 µM,> 100 µM,> 100
S=C(Nc1ccc(-c2nc3ccccc3[nH]2)cc1)Nc1ccc(-c2nc3ccccc3[nH]2)cc1,92 µM,> 100 µM,> 100 µM,> 100 µM,83.4,> 100,43.5 µM,> 100 µM,43.8 µM,> 100 µM,24.5 µM,99.4 µM,37.1 µM,> 100 µM,> 100 µM,> 100 µM,,,> 100 µM,> 100
Cn1c2c(c3ccc([N+](=O)[O-])cc3c1=O)C(=O)c1ccccc1-2,> 100 µM,> 100 µM,> 100 µM,> 100 µM,,,> 100 µM,> 100 µM,> 100 µM,> 100 µM,> 100 µM,> 100 µM,> 100 µM,> 100 µM,> 100 µM,> 100 µM,> 100 µM,> 100 µM,> 100 µM,> 100
COc1c2ccoc2c(OC)c2oc(=O)ccc12,,> 100 µM,,> 100 µM,,> 100,,> 100 µM,,> 100 µM,,> 100 µM,,> 100 µM,,,,63.6 µM,,> 100
CCN(CC)CC(O)CNc1c2ccc([N+](=O)[O-])cc2nc2cc(OC)c(OC)cc12 (stereo not drawn),0.517 µM,10.4 µM,,,0.396,10.9,0.343 µM,1.37 µM,0.376 µM,12.4 µM,0.267 µM,0.823 µM,0.273 µM,0.769 µM,0.535 µM,2.84 µM,0.488 µM,1.88 µM,0.369 µM,1.62
